The Kinase Knowledgebase extract (Sharma et al. 2016)

Assays:
[1] = molecular target: CDK2 (human) (UniProt P24941); test: Cell-Based Assay; details: rko
[2] = molecular target: CDK2 (human) (UniProt P24941); test: Enzyme Assay
[3] = molecular target: CDK2 (human) (UniProt P24941); test: Cell-Based Assay

Compound	IC50 [1]	IC50 [2]	IC50 ([3]; rko)	IC50 ([3]; hdf-3)	IC50 ([3]; mes/sa)	IC50 ([3]; hdf)	IC50 ([3]; mda-mb-468)
CS(=O)(=O)Cc1ccc(N/C=C2\C(=O)Nc3ccc4ncsc4c32)cc1		30.5 nM	3050 nM	3050 nM	3050 nM		
CNS(=O)(=O)Cc1ccc(NN=C2C(=O)Nc3ccc4ncccc4c32)cc1		5.5 nM	3050 nM	3050 nM			
O=C1Nc2ccc3ncsc3c2/C1=C/Nc1ccc2nn[nH]c2c1		30.5 nM					3050 nM
CNS(=O)(=O)Cc1ccc(NN=C2C(=O)Nc3cc(C)c(O)c(C)c32)cc1	300 nM	75.5 nM	300 nM	3050 nM		800 nM	

Continued, values first:

IC50 [1]	IC50 [2]	IC50 ([3]; rko)	IC50 ([3]; hdf-3)	IC50 ([3]; mes/sa)	IC50 ([3]; hdf)	IC50 ([3]; mda-mb-468)	Compound
3050 nM	5.5 nM	3050 nM					CN(C)S(=O)(=O)c1ccc(N/C=C2\C(=O)Nc3ccc(-c4cnco4)cc32)cc1
800 nM	5.5 nM	800 nM	800 nM	300 nM	3050 nM		NS(=O)(=O)c1ccc(NN=C2C(=O)Nc3ccc(-c4cnco4)cc32)cc1
						> 5000 nM	CN(C)S(=O)(=O)c1ccc(N/C=C2/C(=O)Nc3ccc(-c4cnco4)cc32)cc1
	5.5 nM	3050 nM	3050 nM				CCC(C)Cc1cccc2c1C(=NNc1ccc(S(N)(=O)=O)cc1)C(=O)N2 (configuration not stated)
